This note sets out measurements from the OligoGym collection.

For the data set, the target named is HSD17B13. The following applies: ASO, HepaRG.

After the bases stand the sugars from the 5' end (letter, count) and the backbone: PS all phosphorothioate, else s phosphorothioate and o phosphodiester by linkage. Methylation of C is not given here. e = 2'-O-(2-methoxyethyl) (MOE); k = constrained ethyl (cEt); d = 2'-deoxy (DNA); m = 2'-O-methyl

In the case of GAAGTGTAATGCTCCC (sugars k3 d10 k3, PS), where the note is “1 µM”, the target mRNA inhibition is 71%.

Turning to GAAGTTTTTAAGAGGC (sugars k3 d10 k3, PS), the target mRNA inhibition (1 µM) was 64%.

Under “1 µM”, “GAATAGCAAGCCAACA (sugars k3 d1 m1 d8 k3, PS)” yielded a target mRNA inhibition of 23%.

Under “1 µM”, GAATCAAATAGATCCT (sugars k3 d10 k3, PS) returned a target mRNA inhibition of 46%.

With GAATCATTCAGTAGCT (sugars k3 d10 k3, PS), under “1 µM”, the target mRNA inhibition amounted to 65%.

In turn, GAATTCACTATCTCCC (sugars k3 d10 k3, PS) gave a target mRNA inhibition (1 µM) of 38%.

Consider GAATTTTTGAGGTTGG (sugars k3 d10 k3, PS), for which the target mRNA inhibition reads like this: (0.02 µM) 17%; (0.078 µM) 26%; (0.313 µM) 62%; (1 µM) 77%; (1.25 µM) 92%; (5 µM) 91%.

With GACAACAGAGTTCTGT (sugars k3 d10 k3, PS), the target mRNA inhibition (1 µM) came out at 9%.

GACAAGAGTTCTTGCA (sugars k3 d10 k3, PS) registered a target mRNA inhibition (1 µM) of 22%.

Turning to GACAATACAGGATAGA (sugars k3 d10 k3, PS), the target mRNA inhibition (1 µM) is 43%.

Sequence GACAATGACATAGACG (sugars k3 d10 k3, PS) returned a target mRNA inhibition (1 µM) of 0%.

GACAATGGTTGCCACT (sugars k3 d10 k3, PS): under “1 µM”, the target mRNA inhibition turned out to be 63%.

As to GACAATGTGCAGCTCT (sugars k3 d10 k3, PS), the target mRNA inhibition (1 µM) was 67%.

As for GACAGAGCAATTTACT (sugars k3 d10 k3, PS), where the note is “1 µM”, the target mRNA inhibition amounted to 55%.

Regarding GACAGTAAAATTATGC (sugars k3 d10 k3, PS), under “1 µM”, the target mRNA inhibition was 57%.

In turn, GACATAACTTCATAGT (sugars k3 d10 k3, PS) returned a target mRNA inhibition (1 µM) of 39%.

For GACATGAAGATTAGTT (sugars k3 d10 k3, PS), the target mRNA inhibition (1 µM) worked out at 3%.

Under “1 µM”, GACCAAGGATATATGA (sugars k3 d10 k3, PS) gave a target mRNA inhibition of 48%.

The sequence GACCAAGTAGCTTACA (sugars k3 d10 k3, PS) returned a target mRNA inhibition (1 µM) of 28%.

As for GACCAGGGAATTTATC (sugars k3 d10 k3, PS), for the setting “1 µM”, the target mRNA inhibition came out at 41%.

As for GACCTCTGTGAAAGCC (sugars k3 d10 k3, PS), under “1 µM”, the target mRNA inhibition came out at 46%.

On to GACTACGGACTGGCAA (sugars k3 d10 k3, PS), for which the target mRNA inhibition (1 µM) is 60%.

Sequence “GACTGCTGCTAGTGCC (sugars k3 d1 m1 d8 k3, PS)” yielded a target mRNA inhibition (1 µM) of 60%.

Turning to GACTGCTGCTAGTGCC (sugars k3 d10 k3, PS), for the setting “1 µM”, the target mRNA inhibition amounted to 67%.

In the case of “GACTGCTGCTAGTGCC (sugars kkdddddddddkekek, PS)”, the target mRNA inhibition (1 µM) is 35%.

Sequence GACTTCAGAGTTATAC (sugars k3 d10 k3, PS) gave a target mRNA inhibition (1 µM) of 16%.

As for GACTTGCCTCATTTAG (sugars k3 d10 k3, PS), the target mRNA inhibition (1 µM) came to 69%.

Under “1 µM”, GACTTTCATAGGGAGA (sugars k3 d10 k3, PS) had a target mRNA inhibition of 72%.

For the setting “1 µM”, GAGACAAGAGTTCTTG (sugars k3 d10 k3, PS) showed a target mRNA inhibition of 19%.

For the setting “1 µM”, GAGAGAACTTATACAA (sugars k3 d10 k3, PS) showed a target mRNA inhibition of 37%.

As to GAGAGCGATAGATCTC (sugars k3 d10 k3, PS), where the note is “1 µM”, the target mRNA inhibition came out at 1%.

GAGAGTAATCAGTTTT (sugars k3 d10 k3, PS) yielded a target mRNA inhibition (1 µM) of 27%.

On to GAGATTTGAAGGTTAG (sugars k3 d10 k3, PS), for which the target mRNA inhibition is, setting by setting: (0.02 µM) 0%; (0.078 µM) 26%; (0.313 µM) 54%; (1 µM) 82%; (1.25 µM) 77%; (5 µM) 92%.

“GAGAUAAAGCTGCCTG (sugars k3 d1 m1 d8 k3, PS)” had a target mRNA inhibition (1 µM) of 39%.

The sequence GAGCCTAAAATTGTCT (sugars k3 d10 k3, PS) gave a target mRNA inhibition (1 µM) of 49%.

With GAGGAATGGCTAGGAT (sugars k3 d10 k3, PS), for the setting “1 µM”, the target mRNA inhibition was 47%.

GAGGAGTTAGGGAGCC (sugars k3 d10 k3, PS) yielded a target mRNA inhibition (1 µM) of 36%.

GAGGCTAGGGAAATCT (sugars k3 d10 k3, PS): for the setting “1 µM”, the target mRNA inhibition was found to be 56%.

On to GAGGTAGCTTTTGTCC (sugars k3 d10 k3, PS), for which the target mRNA inhibition (1 µM) was 59%.

GAGTATAAATGGCAAT (sugars k3 d10 k3, PS) showed a target mRNA inhibition (1 µM) of 53%.

Turning to GAGTATGACAACTGGA (sugars k3 d10 k3, PS), the target mRNA inhibition (1 µM) was 23%.

For the setting “1 µM”, GAGTCGGATTATTTTT (sugars k3 d10 k3, PS) registered a target mRNA inhibition of 44%.

In the case of “GAGTCGGTCACCTTTC (sugars kkdddddddddkekek, PS)”, the target mRNA inhibition (1 µM) is 62%.

For GAGTGCATCTTAAGAT (sugars k3 d10 k3, PS), the target mRNA inhibition (1 µM) was 43%.

On to GAGTTGCACCGTTTTG (sugars k3 d10 k3, PS), for which the target mRNA inhibition (1 µM) was determined as 48%.

Consider GATAAAATAGGGTGCA (sugars k3 d10 k3, PS), for which the target mRNA inhibition (1 µM) stood at 52%.

For the setting “1 µM”, GATAAGAAGAGAGCTC (sugars k3 d10 k3, PS) gave a target mRNA inhibition of 36%.

As to GATAAGTAGATGGTAA (sugars k3 d10 k3, PS), the target mRNA inhibition (1 µM) was found to be 59%.

Sequence GATACAAATTTATTGG (sugars k3 d10 k3, PS) returned a target mRNA inhibition (1 µM) of 33%.

Take GATACATACCACTCTT (sugars k3 d10 k3, PS): for the setting “1 µM”, the target mRNA inhibition turned out to be 52%.

Under “1 µM”, GATACCAGTTTTTCCC (sugars k3 d10 k3, PS) displayed a target mRNA inhibition of 75%.

Where the note is “1 µM”, GATACCTGAAAAGCCC (sugars k3 d10 k3, PS) registered a target mRNA inhibition of 49%.

GATAGATCTCTTCTCT (sugars k3 d10 k3, PS) yielded a target mRNA inhibition (1 µM) of 0%.

For the sequence GATCATTCCTGCTAGT (sugars k3 d10 k3, PS), the target mRNA inhibition (1 µM) was 35%.

GATCTTAAGGATCATT (sugars k3 d10 k3, PS): for the setting “1 µM”, the target mRNA inhibition came to 0%.

GATGAGGTAAGGAATC (sugars k3 d10 k3, PS) showed a target mRNA inhibition (1 µM) of 0%.

With GATGATGTTCATGGCT (sugars k3 d10 k3, PS), the target mRNA inhibition by setting is: (0.02 µM) 3%; (0.078 µM) 17%; (0.313 µM) 70%; (1 µM) 86%; (1.25 µM) 85%.

In the case of “GATGCTCCATAATAAT (sugars kkdddddddddkekek, PS)”, the target mRNA inhibition (1 µM) amounted to 17%.

For the sequence GATGGTAAGTCAAATA (sugars k3 d10 k3, PS), the target mRNA inhibition by setting is: (0.02 µM) 22%; (0.078 µM) 34%; (0.313 µM) 47%; (1 µM) 85%; (1.25 µM) 74%; (5 µM) 90%.

For “GATGTAGTGGGAGTCG (sugars k3 d9 k3 e1, PS)”, under “1 µM”, the target mRNA inhibition stood at 42%.

GATGTATACATTACCT (sugars k3 d10 k3, PS) had a target mRNA inhibition (1 µM) of 67%.

In turn, GATGTTAGGACCCAGT (sugars k3 d10 k3, PS) came in with a target mRNA inhibition (1 µM) of 64%.

With GATGTTCATGGCTTTG (sugars k3 d10 k3, PS), the target mRNA inhibition (0.02 µM) turned out to be 0%; the target mRNA inhibition (0.078 µM) came to 5%; the target mRNA inhibition (0.313 µM) was 75%; the target mRNA inhibition (1 µM) is 81%; the target mRNA inhibition (1.25 µM) is 68%.

For the setting “1 µM”, “GATGUAGTGGGAGTCG (sugars k3 d1 m1 d8 k3, PS)” yielded a target mRNA inhibition of 35%.

For “GATTAAGCAGAATTGT (sugars k3 d1 m1 d8 k3, PS)”, for the setting “1 µM”, the target mRNA inhibition was 28%.

GATTAAGCAGAATTGT (sugars k3 d10 k3, PS) displayed a target mRNA inhibition (1 µM) of 37%.

The sequence GATTAAGGCAAAGATC (sugars k3 d10 k3, PS) showed a target mRNA inhibition (1 µM) of 25%.

For the setting “1 µM”, GATTAATCATGGGACA (sugars k3 d10 k3, PS) displayed a target mRNA inhibition of 9%.

Regarding GATTAATCTTGATGCT (sugars k3 d10 k3, PS), the target mRNA inhibition (1 µM) worked out at 26%.

For GATTAGTCTTGATGTA (sugars k3 d10 k3, PS), the target mRNA inhibition (1 µM) came to 65%.

GATTCGAAACTATTCA (sugars k3 d10 k3, PS) returned a target mRNA inhibition (1 µM) of 57%.

As to GATTGCACAAACCACA (sugars k3 d10 k3, PS), the target mRNA inhibition (1 µM) amounted to 73%.

The sequence “GATTGGAATGCTACTT (sugars kkdddddddddkekek, PS)” displayed a target mRNA inhibition (1 µM) of 53%.

Take GATTTGAAGGTTAGAT (sugars k3 d10 k3, PS): the target mRNA inhibition (1 µM) was 47%.

In turn, GATTTTTGGTGAACCC (sugars k3 d10 k3, PS) gave a target mRNA inhibition (1 µM) of 30%.

Consider GCAAATGTAAGAAGCC (sugars k3 d10 k3, PS), for which the target mRNA inhibition (1 µM) was 4%.

On to “GCAAGCCAACAGAGAG (sugars k3 d9 k3 e1, PS)”, for which, for the setting “1 µM”, the target mRNA inhibition was 38%.

With GCAAGCCAACAGAGAG (sugars k3 d10 k3, PS), for the setting “1 µM”, the target mRNA inhibition amounted to 52%.

Sequence GCACAAGCACACTGTA (sugars k3 d10 k3, PS) displayed a target mRNA inhibition (1 µM) of 7%.

GCACCCCATGGATCTA (sugars k3 d10 k3, PS) registered a target mRNA inhibition (1 µM) of 35%.

In turn, “GCACCGTTTTGGGCTA (sugars k3 d9 k3 e1, PS)” registered a target mRNA inhibition (1 µM) of 45%.

GCACCGTTTTGGGCTA (sugars k3 d10 k3, PS) had a target mRNA inhibition (0.02 µM) of 36%; a target mRNA inhibition (0.078 µM) of 38%; a target mRNA inhibition (0.313 µM) of 61%; a target mRNA inhibition (1 µM) of 74%; a target mRNA inhibition (1.25 µM) of 80%; a target mRNA inhibition (5 µM) of 88%.

As to “GCACCGTTTTGGGCTA (sugars kkdddddddddkekek, PS)”, for the setting “1 µM”, the target mRNA inhibition is 49%.

For GCACTCAGCTGCAGTT (sugars k3 d10 k3, PS), the target mRNA inhibition (1 µM) amounted to 29%.
